The record followed here is article doi:10.1101/2025.08.29.673196v2, “Development and characterization of Novel Small Molecule Inhibitors Targeting LAG-3 Protein” (biorxiv, 2025).

Each structure is given as a SMILES string.

By IC50 is commonly meant the concentration that gives 50% inhibition.

The target in this experiment is T1, LAG-3 (biotinylated LAG-3 of HTRF LAG-3/MHCII binding assay) (Homo sapiens, UniProt P18627).
T1 construct: gene LAG3; biotinylated LAG-3 reagent of Revvity HTRF LAG-3/MHCII kit
T1 sequence (P18627 23-450 limits assumed): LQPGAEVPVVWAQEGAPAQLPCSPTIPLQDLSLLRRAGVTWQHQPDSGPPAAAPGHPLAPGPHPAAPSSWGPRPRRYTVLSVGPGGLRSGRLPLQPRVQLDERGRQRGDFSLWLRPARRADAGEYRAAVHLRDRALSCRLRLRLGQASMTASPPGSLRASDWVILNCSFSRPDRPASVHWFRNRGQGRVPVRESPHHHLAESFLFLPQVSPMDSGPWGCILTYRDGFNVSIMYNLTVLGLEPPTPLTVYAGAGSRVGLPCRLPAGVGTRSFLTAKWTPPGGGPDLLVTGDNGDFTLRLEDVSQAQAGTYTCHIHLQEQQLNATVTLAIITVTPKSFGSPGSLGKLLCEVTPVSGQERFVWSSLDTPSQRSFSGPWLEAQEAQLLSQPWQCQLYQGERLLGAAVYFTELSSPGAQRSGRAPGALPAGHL
The experiment is described as follows: HTRF LAG-3/MHCII binding inhibition. (In TR-FRET formats the signal depends on donor and acceptor labels being close together.)
Regarding `Cc1cc(=O)oc2cc(NC(=O)c3cc(NC(=O)c4ccccc4)ccc3Oc3ccc(C(=O)O)cc3)ccc12` [LG-125], the IC50 turned out to be 21000 nM.
Under `Cc1cc(=O)oc2cc(NC(=O)c3cc(NC(=O)c4cccc(C5(C(F)(F)F)CCC5)c4)ccc3Oc3ccc(C(=O)O)cc3)ccc12` [LG-131] stands 602 nM; under `COc1ccc(OC)c(NC(=O)C(=O)Nc2ccc(Oc3ccc(C(=O)O)cc3)c(C(=O)Nc3ccc4c(C)cc(=O)oc4c3)c2)c1` [LG-164], 371 nM.
Under `Cc1cc(=O)oc2cc(NC(=O)c3cc(NS(=O)(=O)N4CCC(c5ccccc5)CC4)ccc3Oc3ccc(C(=O)O)cc3)ccc12` [LG-193] stands 467 nM.
